In article PMC4770306, “Structure-Based Identification of Inhibitory Fragments Targeting the p300/CBP-Associated Factor Bromodomain” (Journal of Medicinal Chemistry, 2016):

Assays:
Assay type in all cases: binding
[1] = target: T1, PCAF bromodomain (Homo sapiens, UniProt Q92831); test: SPR (Biacore) of TINS fragment hits on immobilized PCAF; settings: for Kd: SPR, 20 °C, six concentrations, aqueous buffer without DMSO; for LE: from SPR KD and heavy atom count
T1 construct: made in house
T1 sequence (Q92831 723-827 limits assumed): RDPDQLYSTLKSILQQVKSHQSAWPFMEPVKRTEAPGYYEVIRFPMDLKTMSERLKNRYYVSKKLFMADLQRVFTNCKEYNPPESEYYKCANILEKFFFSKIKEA
Experimental: Recombinant PCAF was biotinylated on the N-terminal AVI tag in vivo. Purified, biotinylated PCAF was captured onto a NeutraAvidin-coated CM5 sensor chip surface in 20 mM sodium phosphate pH7.5, 150 mM NaCl, 2 mM DTT, and 0.05% P20 Tween. This buffer was subsequently used for all studies. The immobilization level was 10150 RU. All SPR experiments were performed using a Biacore T200 instrument at 20 °C. Fragment hits from TINS were directly solubilized in the running buffer. Each fragment was titrated at six different concentrations for KD determination. An acetyl-Lys 16 peptide derived from H4 was used to monitor the ligand binding capacity of the immobilized PCAF bromodomain at regular intervals.

[2] = target: T2, ATAD2A (Homo sapiens, UniProt Q6PL18); test: Alphascreen assay ATAD2A
T2 sequence (Q6PL18 1-1390): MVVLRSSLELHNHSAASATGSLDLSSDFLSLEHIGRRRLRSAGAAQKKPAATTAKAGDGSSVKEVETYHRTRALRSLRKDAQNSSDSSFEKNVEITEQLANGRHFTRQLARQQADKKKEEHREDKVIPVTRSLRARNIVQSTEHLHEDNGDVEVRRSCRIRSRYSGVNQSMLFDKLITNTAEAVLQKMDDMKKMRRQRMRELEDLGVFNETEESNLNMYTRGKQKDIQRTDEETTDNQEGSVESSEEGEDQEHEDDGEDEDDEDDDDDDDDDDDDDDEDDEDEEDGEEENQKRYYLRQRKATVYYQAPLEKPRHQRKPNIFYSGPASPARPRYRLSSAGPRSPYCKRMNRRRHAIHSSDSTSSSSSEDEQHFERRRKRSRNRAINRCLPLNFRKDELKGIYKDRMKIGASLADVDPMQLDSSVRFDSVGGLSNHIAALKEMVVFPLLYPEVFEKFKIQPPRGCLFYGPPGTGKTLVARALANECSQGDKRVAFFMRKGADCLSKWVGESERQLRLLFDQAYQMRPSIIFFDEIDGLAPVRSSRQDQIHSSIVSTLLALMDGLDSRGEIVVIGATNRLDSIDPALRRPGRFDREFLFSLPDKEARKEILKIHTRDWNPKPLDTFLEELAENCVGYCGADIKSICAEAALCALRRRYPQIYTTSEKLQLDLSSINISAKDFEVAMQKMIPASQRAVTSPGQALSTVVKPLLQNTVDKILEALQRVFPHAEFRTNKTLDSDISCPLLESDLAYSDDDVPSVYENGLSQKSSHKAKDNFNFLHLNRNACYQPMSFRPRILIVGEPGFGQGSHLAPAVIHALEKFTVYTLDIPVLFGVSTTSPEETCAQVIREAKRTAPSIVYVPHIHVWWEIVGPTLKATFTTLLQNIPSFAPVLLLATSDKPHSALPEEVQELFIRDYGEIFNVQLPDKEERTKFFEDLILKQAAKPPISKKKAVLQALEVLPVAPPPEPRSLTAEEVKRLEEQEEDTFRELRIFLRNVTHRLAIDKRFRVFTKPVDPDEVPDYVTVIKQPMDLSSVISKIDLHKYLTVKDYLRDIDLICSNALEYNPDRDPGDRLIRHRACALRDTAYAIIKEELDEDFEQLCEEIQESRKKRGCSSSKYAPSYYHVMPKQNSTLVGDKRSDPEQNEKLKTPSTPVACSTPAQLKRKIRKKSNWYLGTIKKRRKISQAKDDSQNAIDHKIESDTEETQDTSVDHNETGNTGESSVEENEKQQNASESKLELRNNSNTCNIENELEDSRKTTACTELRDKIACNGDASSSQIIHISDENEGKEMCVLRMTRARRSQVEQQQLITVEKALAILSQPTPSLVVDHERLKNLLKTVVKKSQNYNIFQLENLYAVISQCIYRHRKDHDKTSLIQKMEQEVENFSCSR

[3] = target: BAZ2BA (Homo sapiens, UniProt Q9UIF8); test: Alphascreen assay BAZ2BA
BAZ2BA, sequence (Q9UIF8 whole entry): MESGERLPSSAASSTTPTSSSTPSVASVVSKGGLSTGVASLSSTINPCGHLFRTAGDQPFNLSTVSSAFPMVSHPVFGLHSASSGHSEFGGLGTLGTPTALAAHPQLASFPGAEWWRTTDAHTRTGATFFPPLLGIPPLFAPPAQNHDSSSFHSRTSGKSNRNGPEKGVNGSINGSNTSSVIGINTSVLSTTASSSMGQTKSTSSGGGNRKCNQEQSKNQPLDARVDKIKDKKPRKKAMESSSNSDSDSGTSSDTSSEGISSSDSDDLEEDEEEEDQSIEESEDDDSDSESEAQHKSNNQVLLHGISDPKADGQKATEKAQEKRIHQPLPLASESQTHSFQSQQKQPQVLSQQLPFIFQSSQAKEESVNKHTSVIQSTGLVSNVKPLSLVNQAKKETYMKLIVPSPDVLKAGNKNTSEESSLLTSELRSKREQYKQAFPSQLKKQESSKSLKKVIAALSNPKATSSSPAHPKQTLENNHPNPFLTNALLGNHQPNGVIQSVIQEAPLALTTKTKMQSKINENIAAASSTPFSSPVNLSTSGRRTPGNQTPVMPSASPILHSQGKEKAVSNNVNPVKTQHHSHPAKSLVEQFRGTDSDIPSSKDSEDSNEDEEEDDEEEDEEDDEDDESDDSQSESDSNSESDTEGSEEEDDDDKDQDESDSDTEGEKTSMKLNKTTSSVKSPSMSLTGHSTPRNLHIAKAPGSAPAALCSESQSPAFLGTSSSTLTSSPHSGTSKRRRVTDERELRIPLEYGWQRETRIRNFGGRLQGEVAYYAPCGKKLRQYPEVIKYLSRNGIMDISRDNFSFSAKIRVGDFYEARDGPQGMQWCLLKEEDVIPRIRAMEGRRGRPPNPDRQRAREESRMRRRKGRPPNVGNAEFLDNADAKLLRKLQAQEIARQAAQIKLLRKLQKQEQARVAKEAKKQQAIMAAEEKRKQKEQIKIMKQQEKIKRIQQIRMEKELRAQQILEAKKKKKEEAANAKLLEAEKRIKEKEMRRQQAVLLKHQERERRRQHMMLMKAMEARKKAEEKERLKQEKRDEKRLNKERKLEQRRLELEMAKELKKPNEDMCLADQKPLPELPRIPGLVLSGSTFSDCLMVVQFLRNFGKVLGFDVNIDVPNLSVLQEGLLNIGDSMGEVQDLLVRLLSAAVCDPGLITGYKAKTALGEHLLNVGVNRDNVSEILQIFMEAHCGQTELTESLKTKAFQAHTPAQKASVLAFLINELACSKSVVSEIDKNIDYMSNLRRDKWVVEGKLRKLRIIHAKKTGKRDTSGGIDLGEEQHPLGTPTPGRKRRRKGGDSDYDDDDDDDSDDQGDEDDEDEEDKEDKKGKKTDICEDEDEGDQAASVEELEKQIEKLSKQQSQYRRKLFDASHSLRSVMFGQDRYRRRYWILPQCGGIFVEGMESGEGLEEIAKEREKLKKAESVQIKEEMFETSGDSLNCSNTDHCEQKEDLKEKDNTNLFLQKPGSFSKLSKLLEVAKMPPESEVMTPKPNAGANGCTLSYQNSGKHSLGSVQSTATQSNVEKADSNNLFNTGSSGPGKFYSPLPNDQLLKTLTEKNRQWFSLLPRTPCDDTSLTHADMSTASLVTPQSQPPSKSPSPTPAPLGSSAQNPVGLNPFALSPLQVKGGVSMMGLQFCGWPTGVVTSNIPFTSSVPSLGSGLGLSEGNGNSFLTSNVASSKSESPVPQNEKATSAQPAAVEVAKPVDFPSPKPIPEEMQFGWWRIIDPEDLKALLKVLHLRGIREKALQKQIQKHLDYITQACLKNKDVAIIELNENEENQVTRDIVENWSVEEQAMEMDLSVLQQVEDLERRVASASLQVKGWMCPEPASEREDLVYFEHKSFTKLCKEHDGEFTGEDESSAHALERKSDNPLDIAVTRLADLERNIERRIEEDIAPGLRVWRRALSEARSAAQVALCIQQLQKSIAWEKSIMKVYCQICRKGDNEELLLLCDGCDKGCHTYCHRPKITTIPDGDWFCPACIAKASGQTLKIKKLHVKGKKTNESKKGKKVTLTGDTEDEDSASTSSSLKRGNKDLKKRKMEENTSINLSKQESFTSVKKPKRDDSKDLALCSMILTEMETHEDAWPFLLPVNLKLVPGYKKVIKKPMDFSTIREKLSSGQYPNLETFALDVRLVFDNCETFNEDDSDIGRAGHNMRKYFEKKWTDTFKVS

[4] = target: CECR2A (Homo sapiens, UniProt Q9BXF3); test: Alphascreen assay CECR2A
CECR2A, sequence (Q9BXF3 whole entry): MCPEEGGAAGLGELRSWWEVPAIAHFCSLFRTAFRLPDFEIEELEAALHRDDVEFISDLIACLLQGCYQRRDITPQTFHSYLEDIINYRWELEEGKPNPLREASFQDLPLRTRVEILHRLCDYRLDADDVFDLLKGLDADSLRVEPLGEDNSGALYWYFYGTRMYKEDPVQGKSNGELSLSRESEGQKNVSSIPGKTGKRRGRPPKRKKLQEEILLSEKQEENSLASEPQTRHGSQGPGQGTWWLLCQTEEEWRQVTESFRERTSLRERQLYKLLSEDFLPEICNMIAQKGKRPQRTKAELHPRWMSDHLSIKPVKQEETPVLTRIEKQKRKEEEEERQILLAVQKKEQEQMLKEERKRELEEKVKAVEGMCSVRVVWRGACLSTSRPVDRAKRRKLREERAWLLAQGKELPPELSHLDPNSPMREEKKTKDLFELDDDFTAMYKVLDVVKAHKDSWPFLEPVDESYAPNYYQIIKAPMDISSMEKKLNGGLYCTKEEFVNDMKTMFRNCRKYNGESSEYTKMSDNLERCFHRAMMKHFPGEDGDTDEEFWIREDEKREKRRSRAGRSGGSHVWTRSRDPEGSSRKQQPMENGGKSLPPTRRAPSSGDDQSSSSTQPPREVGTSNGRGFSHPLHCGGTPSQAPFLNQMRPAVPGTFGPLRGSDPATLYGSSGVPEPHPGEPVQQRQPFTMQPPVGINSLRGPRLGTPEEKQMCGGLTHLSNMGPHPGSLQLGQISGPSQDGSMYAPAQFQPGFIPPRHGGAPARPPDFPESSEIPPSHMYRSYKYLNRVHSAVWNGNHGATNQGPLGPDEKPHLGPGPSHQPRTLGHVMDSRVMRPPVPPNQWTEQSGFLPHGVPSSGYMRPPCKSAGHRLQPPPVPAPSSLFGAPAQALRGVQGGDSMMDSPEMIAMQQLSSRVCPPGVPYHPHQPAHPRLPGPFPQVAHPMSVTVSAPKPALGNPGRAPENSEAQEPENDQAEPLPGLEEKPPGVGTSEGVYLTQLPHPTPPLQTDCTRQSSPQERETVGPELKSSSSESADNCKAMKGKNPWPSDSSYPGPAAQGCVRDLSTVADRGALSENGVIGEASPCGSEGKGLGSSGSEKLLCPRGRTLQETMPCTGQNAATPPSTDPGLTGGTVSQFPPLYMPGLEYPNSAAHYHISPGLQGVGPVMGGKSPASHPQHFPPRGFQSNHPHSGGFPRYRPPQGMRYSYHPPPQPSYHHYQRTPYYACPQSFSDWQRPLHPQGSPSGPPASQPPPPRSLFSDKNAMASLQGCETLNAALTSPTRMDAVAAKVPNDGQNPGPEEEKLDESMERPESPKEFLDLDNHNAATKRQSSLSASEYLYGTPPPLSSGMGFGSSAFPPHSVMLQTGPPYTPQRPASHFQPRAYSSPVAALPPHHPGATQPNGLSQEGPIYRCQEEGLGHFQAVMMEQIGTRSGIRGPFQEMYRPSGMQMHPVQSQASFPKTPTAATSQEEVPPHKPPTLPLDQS

[5] = target: T3, BRPF3A (Homo sapiens, UniProt Q9ULD4); test: Alphascreen assay BRPF3A
T3 sequence (Q9ULD4 1-1205): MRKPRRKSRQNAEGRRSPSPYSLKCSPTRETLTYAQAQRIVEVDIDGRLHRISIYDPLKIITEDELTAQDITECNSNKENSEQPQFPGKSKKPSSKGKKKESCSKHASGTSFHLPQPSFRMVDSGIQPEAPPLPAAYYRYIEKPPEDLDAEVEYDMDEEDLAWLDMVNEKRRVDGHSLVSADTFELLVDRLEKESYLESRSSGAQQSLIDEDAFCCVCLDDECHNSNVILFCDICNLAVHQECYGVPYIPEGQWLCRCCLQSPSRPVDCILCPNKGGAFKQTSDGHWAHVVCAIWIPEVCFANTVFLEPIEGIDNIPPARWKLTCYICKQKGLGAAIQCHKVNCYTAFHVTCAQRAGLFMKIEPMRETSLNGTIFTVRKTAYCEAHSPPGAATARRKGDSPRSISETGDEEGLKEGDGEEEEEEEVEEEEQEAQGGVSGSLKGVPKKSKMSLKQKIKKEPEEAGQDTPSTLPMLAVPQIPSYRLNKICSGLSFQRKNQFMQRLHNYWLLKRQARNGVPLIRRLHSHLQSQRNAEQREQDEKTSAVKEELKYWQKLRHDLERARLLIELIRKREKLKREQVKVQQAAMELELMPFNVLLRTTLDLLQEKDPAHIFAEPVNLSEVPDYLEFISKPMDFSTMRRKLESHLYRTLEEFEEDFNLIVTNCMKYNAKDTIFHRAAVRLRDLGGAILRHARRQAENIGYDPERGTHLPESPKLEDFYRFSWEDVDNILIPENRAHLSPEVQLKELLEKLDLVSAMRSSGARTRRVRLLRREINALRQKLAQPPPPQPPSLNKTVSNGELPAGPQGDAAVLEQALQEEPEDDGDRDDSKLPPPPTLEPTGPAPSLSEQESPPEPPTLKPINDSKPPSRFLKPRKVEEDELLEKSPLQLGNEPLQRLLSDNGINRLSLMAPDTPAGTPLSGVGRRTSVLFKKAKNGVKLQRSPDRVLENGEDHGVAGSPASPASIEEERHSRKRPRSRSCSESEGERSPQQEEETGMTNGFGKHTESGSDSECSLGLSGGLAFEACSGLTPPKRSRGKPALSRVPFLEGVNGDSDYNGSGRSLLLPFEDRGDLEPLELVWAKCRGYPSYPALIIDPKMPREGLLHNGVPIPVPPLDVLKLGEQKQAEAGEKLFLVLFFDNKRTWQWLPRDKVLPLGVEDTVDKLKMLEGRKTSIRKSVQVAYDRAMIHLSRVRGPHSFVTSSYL

[6] = target: T4, BAZ1BA (Homo sapiens, UniProt Q9UIG0); test: Alphascreen assay BAZ1BA
T4 sequence (Q9UIG0 1-1483): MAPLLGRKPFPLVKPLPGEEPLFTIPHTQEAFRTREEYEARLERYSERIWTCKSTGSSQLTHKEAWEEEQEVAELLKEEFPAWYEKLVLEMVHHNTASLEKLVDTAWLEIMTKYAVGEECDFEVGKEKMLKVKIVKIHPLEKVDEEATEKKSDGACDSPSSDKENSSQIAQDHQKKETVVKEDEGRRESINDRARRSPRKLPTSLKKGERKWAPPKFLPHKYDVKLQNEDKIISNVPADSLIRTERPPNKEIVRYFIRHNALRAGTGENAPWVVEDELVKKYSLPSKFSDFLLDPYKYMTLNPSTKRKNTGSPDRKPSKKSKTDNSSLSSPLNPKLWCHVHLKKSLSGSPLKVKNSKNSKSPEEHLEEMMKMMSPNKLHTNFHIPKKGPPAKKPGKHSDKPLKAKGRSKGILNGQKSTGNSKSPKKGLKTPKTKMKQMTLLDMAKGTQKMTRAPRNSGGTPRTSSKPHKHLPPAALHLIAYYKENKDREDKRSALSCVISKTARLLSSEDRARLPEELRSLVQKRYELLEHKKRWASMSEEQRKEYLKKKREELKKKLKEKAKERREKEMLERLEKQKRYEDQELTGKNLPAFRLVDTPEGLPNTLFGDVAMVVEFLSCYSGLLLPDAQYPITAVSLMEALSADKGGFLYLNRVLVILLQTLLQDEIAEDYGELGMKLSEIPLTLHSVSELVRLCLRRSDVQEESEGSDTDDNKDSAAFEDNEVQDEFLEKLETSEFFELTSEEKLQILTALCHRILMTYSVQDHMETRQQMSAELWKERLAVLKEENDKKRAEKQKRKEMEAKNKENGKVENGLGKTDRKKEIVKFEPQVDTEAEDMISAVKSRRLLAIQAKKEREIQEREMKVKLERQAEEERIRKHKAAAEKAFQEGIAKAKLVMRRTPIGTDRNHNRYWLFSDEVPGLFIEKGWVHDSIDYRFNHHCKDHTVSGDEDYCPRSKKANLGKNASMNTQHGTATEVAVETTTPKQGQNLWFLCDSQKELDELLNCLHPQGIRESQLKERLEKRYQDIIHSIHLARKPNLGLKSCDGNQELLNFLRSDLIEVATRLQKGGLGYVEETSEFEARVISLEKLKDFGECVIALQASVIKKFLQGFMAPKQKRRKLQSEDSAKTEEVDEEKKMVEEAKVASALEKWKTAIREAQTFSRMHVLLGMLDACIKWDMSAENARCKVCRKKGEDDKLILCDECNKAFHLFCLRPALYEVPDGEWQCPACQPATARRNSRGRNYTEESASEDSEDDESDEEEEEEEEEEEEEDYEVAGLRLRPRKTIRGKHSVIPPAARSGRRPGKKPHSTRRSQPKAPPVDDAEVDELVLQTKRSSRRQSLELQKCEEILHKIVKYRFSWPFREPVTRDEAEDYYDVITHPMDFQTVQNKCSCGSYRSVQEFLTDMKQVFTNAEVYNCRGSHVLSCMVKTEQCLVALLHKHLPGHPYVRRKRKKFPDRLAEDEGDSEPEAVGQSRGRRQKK

[7] = target: T5, PCAF bromodomain (Homo sapiens, UniProt Q92831); test: Thermal stability shift assay (DSF), PCAF bromodomain; settings: compound 1 mM, protein 2 μM, average of triplicates
T5 construct: The PCAF bromodomain (aa 715–831) containing an N-terminal His6-tag was recombinantly expressed in Escherichia coli Rosetta; His6 (N, cleaved yes); made in house; host or cells: Escherichia coli Rosetta
T5 sequence (Q92831 715-831): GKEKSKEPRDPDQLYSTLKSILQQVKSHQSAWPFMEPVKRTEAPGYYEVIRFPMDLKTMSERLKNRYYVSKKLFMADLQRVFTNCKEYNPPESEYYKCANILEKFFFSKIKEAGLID

[8] = target: T6, BRD9A (Homo sapiens, UniProt Q9H8M2); test: Alphascreen assay BRD9A; settings: for % Inhibition at 25 µM / inhibition at 25 µM: BRD9A; for IC50: read-out: BRD9 IC50
T6 sequence (Q9H8M2 1-597): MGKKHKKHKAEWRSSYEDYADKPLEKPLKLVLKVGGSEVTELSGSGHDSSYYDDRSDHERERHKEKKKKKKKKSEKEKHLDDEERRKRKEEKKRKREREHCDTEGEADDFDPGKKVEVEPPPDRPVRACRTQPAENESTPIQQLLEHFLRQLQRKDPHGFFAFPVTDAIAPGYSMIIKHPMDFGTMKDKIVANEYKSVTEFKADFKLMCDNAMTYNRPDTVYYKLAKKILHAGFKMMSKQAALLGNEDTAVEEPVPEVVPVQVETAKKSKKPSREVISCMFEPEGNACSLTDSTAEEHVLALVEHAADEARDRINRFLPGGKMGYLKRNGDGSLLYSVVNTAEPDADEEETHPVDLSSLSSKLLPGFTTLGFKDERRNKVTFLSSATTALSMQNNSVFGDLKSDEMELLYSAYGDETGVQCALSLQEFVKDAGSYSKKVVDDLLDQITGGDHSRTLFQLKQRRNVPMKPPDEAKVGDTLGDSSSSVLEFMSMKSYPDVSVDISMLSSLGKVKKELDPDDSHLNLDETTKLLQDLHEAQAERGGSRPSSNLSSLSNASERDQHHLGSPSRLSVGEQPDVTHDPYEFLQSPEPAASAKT

[9] = target: T5, PCAF bromodomain; test: Isothermal titration calorimetry (ITC) with PCAF; settings: from ITC Kd

Kd [1] [µM]	LE [1]	inhibition at 25 µM [2] [%]	inhibition at 25 µM [3] [%]	inhibition at 25 µM [4] [%]	inhibition at 25 µM [5] [%]	inhibition at 25 µM [6] [%]	% Inhibition at 25 µM [8]	inhibition at 25 µM [8] [%]	IC50 [8] [µM]	SMILES	further results
2680	0.23	–	–	–	–	–	–	–	–	Cc1c(N)c(=O)n(-c2ccccc2)n1C [compound 9]	–
6910	0.24	–	–	–	–	–	–	–	–	NC1CCN(C(=O)C2CC2)CC1 [compound 10]	–
488	0.32	–	–	–	–	–	–	–	–	Cc1nn(CCO)c2c1C(=O)CCC2 [compound 11]	–
–	–	2.4	-2.6	38.7	46.8	0.7	strong inhibition	82.8	12.5	CC(=O)Nc1ccc2c(C)cc(=O)n(C)c2c1 [compound 12, N-(1,4-dimethyl-2-oxo-1,2-dihydroquinolin-7-yl)acetamide]	ΔTm (°C) at 1 mM (± SEM) [7]: 2.6–2.9 °C
–	–	1.4	5.3	3.9	28.7	-0.2	strong inhibition	84.1	5.7	Cc1cc(=O)n(C)c2cc(NS(C)(=O)=O)ccc12 [compound 13, N-(1,4-dimethyl-2-oxo-1,2-dihydroquinolin-7-yl)methanesulfonam]	–
–	–	–	–	–	–	–	–	–	–	CNC(=O)c1cc(OCC(=O)Nc2ccccc2)ccc1OC1CCOCC1 [compound 14, N-methyl-5-(2-oxo-2-(phenylamino)ethoxy)-2-((tetrahydro-2H-pyran-4-yl)oxy)benzamide]	ligand efficiency (LE) [9]: 0.24
